Data reported in patent publication US20170347654A1, “Herbicidal Compounds” (SYNGENTA PARTICIPATIONS AG, priority 2014, published 2017).

How the values were obtained:
Assay in all cases: Post-emergence efficacy (glasshouse)
Assay type in all cases: in vivo
Conditions in all cases: evaluated after 13 days
Setaria faberi (SETFA) = system: Setaria faberi (SETFA)
Procedure: (§1) Seeds of a variety of test species (such as, for example, Solanum nigrum (SOLNI), Amaranthus retoflexus (AMARE), Setaria faberi (SETFA), Echinochloa crusgalli (ECHCG), Ipomoea hederacea (IPOHE) and Lolium perenne (LOLPE)) are sown in standard soil in pots. After 8 days cultivation (post-emergence) under controlled conditions in a glasshouse (at 24/16° C., day/night; 14 hours light; 65% humidity), the plants are sprayed with an aqueous spray solution derived from the formulation of the technical active ingredient in acetone/water (50:50) solution containing 0.5% Tween 20 (polyoxyethylene sorbitan monolaurate, CAS RN 9005-64-5). Compounds are applied at 1000 and 62.5 g/ha. The test plants are then grown under controlled conditions in a glasshouse (at 24/16° C., day/night; 14 hours light; 65% humidity) and watered twice daily. After 13 days, the test is evaluated for the percentage damage caused to the plant. The biological activities are assessed on a five point scale (5=80-100%; 4=60-79%; 3=40-59%; 2=20-39%; 1=0-19%).

Lolium perenne (LOLPE) = system: Lolium perenne (LOLPE)
Procedure: as §1

[1] = system: Ipomoea hederacea (IPOHE)
Procedure: as §1

[2] = system: Amaranthus retoflexus (AMARE)
Procedure: as §1

Solanum nigrum (SOLNI) = system: Solanum nigrum (SOLNI)
Procedure: as §1

[3] = system: Echinochloa crusgalli (ECHCG)
Procedure: as §1

Row | Structure (SMILES) | percentage damage caused to the plant, SETFA (five point scale) (Setaria faberi (SETFA); 62.5 g/ha) | percentage damage caused to the plant, SETFA (five point scale) (Setaria faberi (SETFA); 1000 g/ha) | percentage damage caused to the plant, LOLPE (five point scale) (Lolium perenne (LOLPE); 62.5 g/ha) | percentage damage caused to the plant, LOLPE (five point scale) (Lolium perenne (LOLPE); 1000 g/ha) | percentage damage caused to the plant, IPOHE (five point scale) ([1]; 62.5 g/ha) | percentage damage caused to the plant, IPOHE (five point scale) ([1]; 1000 g/ha) | percentage damage caused to the plant, AMARE (five point scale) ([2]; 62.5 g/ha) | percentage damage caused to the plant, AMARE (five point scale) ([2]; 1000 g/ha) | percentage damage caused to the plant, SOLNI (five point scale) (Solanum nigrum (SOLNI); 62.5 g/ha) | percentage damage caused to the plant, SOLNI (five point scale) (Solanum nigrum (SOLNI); 1000 g/ha) | percentage damage caused to the plant, ECHCG (five point scale) ([3]; 62.5 g/ha) | percentage damage caused to the plant, ECHCG (five point scale) ([3]; 1000 g/ha)
1 | C#CCn1c(=O)c(-c2c(Cl)ccc(Cl)c2OCc2ccccc2)c(O)c2scnc21 [Compound 1.001, 6-(2-benzyloxy-3,6-dichloro-phenyl)-7-hydroxy-4-prop-2-ynyl-thiazolo[4,5-b]pyridin-5-one] | 5 (5=80-100%) | 5 (5=80-100%) | 5 (5=80-100%) | 5 (5=80-100%) | 5 (5=80-100%) | 5 (5=80-100%) | 5 (5=80-100%) | 5 (5=80-100%) | 5 (5=80-100%) | 5 (5=80-100%) | 5 (5=80-100%) | 5 (5=80-100%)
2 | C#CCn1c(=O)c(-c2c(F)ccc(Cl)c2OCc2ccccc2)c(O)c2scnc21 [Compound 1.007] | 5 (5=80-100%) | 5 (5=80-100%) | 5 (5=80-100%) | 5 (5=80-100%) | 5 (5=80-100%) | 5 (5=80-100%) | 5 (5=80-100%) | 5 (5=80-100%) | 5 (5=80-100%) | 5 (5=80-100%) | 5 (5=80-100%) | 5 (5=80-100%)
3 | C#CCn1c(=O)c(-c2c(C(F)(F)F)ccc(Cl)c2OCc2ccccc2)c(O)c2scnc21 [Compound 1.009] | 5 (5=80-100%) | 5 (5=80-100%) | 5 (5=80-100%) | 5 (5=80-100%) | 5 (5=80-100%) | 5 (5=80-100%) | 5 (5=80-100%) | 5 (5=80-100%) | 5 (5=80-100%) | 5 (5=80-100%) | 5 (5=80-100%) | 5 (5=80-100%)
4 | Cn1c(=O)c(-c2c(Cl)ccc(Cl)c2OCc2ccccc2)c(O)c2scnc21 [Compound 1.011] | 2 (2=20-39%) | 5 (5=80-100%) | 2 (2=20-39%) | 5 (5=80-100%) | 5 (5=80-100%) | 5 (5=80-100%) | 4 (4=60-79%) | 5 (5=80-100%) | 5 (5=80-100%) | 5 (5=80-100%) | 3 (3=40-59%) | 5 (5=80-100%)
5 | Cn1c(=O)c(-c2c(F)ccc(Cl)c2OCc2ccccc2)c(O)c2scnc21 [Compound 1.017] | 1 (1=0-19%) | 5 (5=80-100%) | 4 (4=60-79%) | 5 (5=80-100%) | 5 (5=80-100%) | 5 (5=80-100%) | 4 (4=60-79%) | 5 (5=80-100%) | 5 (5=80-100%) | 5 (5=80-100%) | 2 (2=20-39%) | 5 (5=80-100%)
6 | Cn1c(=O)c(-c2c(C(F)(F)F)ccc(Cl)c2OCc2ccccc2)c(O)c2scnc21 [Compound 1.019] | 3 (3=40-59%) | 5 (5=80-100%) | 3 (3=40-59%) | 5 (5=80-100%) | 5 (5=80-100%) | 5 (5=80-100%) | 4 (4=60-79%) | 5 (5=80-100%) | 5 (5=80-100%) | 5 (5=80-100%) | 3 (3=40-59%) | 5 (5=80-100%)
7 | O=c1c(-c2c(Cl)ccc(Cl)c2OCc2ccccc2)c(O)c2scnc2n1CC(F)F [Compound 1.021] | 4 (4=60-79%) | 5 (5=80-100%) | 4 (4=60-79%) | 5 (5=80-100%) | 5 (5=80-100%) | 5 (5=80-100%) | 5 (5=80-100%) | 5 (5=80-100%) | 5 (5=80-100%) | 5 (5=80-100%) | 4 (4=60-79%) | 5 (5=80-100%)
8 | O=c1c(-c2c(F)ccc(Cl)c2OCc2ccccc2)c(O)c2scnc2n1CC(F)F [Compound 1.027] | 3 (3=40-59%) | 5 (5=80-100%) | 4 (4=60-79%) | 5 (5=80-100%) | 5 (5=80-100%) | 5 (5=80-100%) | 5 (5=80-100%) | 5 (5=80-100%) | 5 (5=80-100%) | 5 (5=80-100%) | 3 (3=40-59%) | 5 (5=80-100%)
9 | O=c1c(-c2c(C(F)(F)F)ccc(Cl)c2OCc2ccccc2)c(O)c2scnc2n1CC(F)F [Compound 1.029] | 2 (2=20-39%) | 5 (5=80-100%) | 2 (2=20-39%) | 5 (5=80-100%) | 4 (4=60-79%) | 5 (5=80-100%) | 4 (4=60-79%) | 5 (5=80-100%) | 5 (5=80-100%) | 5 (5=80-100%) | 3 (3=40-59%) | 5 (5=80-100%)
